Assays:
[1] = test system: corn (ZEAMD); assay: Test 25 field trial, postemergence, growth as percent of control; type: in vivo, Zea mays ssp. indentata
From the text: (§1) Corn seeds (hybrid ‘Pioneer 31G96 RR’) were planted in mid spring season, 3.8 cm deep in a clay loam soil having 2% organic matter and a pH of 6.6. Plots were 6.1 m long by 3.0 m wide with rows spaced 76 cm apart. Seeds were spaced 15 cm apart within the rows. The field was managed using conventional tillage practices. […] Giant ragweed and Pennsylvania smartweed could only be evaluated 14 days after application. […] Results are the means of the three replicates. This growth inhibition data was converted to results in the form of “plant growth as a percent of control plant growth” using the calculation “100 minus growth inhibition”.
(§2) When this form of Colby's Equation is used, if the observed effects on weeds are less than the expected values, the mixture is synergistic.

[2] = test system: giant ragweed (AMBTR); assay: as above; type: in vivo, Ambrosia trifida; settings: 14 DAA
From the text: as §1, §2

[3] = test system: velvetleaf (ABUTH); assay: as above; type: in vivo, Abutilon theophrasti
From the text: as §1, §2

[4] = test system: Pennsylvania smartweed (POLPY); assay: as above; type: in vivo, Polygonum pensylvanicum; settings: 14 DAA
From the text: as §1, §2

[5] = test system: common ragweed (AMBEL); assay: as above; type: in vivo, Ambrosia artemisiifolia
From the text: as §1, §2

[6] = test system: giant foxtail (SETFA); assay: as above; type: in vivo, Setaria faberi
From the text: as §1, §2

[7] = test system: redroot pigweed (AMARE); assay: as above; type: in vivo, Amaranthus retroflexus
From the text: as §1, §2

[8] = test system: common lambsquarters (CHEAL); assay: as above; type: in vivo, Chenopodium album
From the text: as §1, §2

[9] = test system: wild mustard (SINAR); assay: Test 24 growth chamber, postemergence; type: in vivo, Sinapis arvensis; settings: 17 DAA
Procedure: (§3) Plants were treated postemergence at the 2-4 leaf growth stage, and each treatment was replicated three times. […] Plants were watered as needed. […] Results for barley and wheat are the means across varieties of the three replicates, and results for the weeds are the means of the three replicates.

[10] = test system: kochia (KCHSC); assay: Test 24 growth chamber, postemergence; type: in vivo, Kochia scoparia; settings: 17 DAA
Procedure: as §3

[11] = test system: galium (GALAP); assay: Test 24 growth chamber, postemergence; type: in vivo, Galium aparine; settings: 17 DAA
Procedure: as §3

[12] = test system: field violet (VIOAR); assay: Test 24 growth chamber, postemergence; type: in vivo, Viola arvensis; settings: 17 DAA
Procedure: as §3

[13] = test system: wild chamomile (MATCH); assay: Test 24 growth chamber, postemergence; type: in vivo, Matricaria chamomilla; settings: 17 DAA
Procedure: as §3

[14] = test system: common chickweed (STEME); assay: Test 24 growth chamber, postemergence; type: in vivo, Stellaria media; settings: 17 DAA
Procedure: as §3

[15] = test system: field poppy (PAPRH); assay: Test 24 growth chamber, postemergence; type: in vivo, Papaver rhoeas; settings: 17 DAA
Procedure: as §3

[16] = test system: wild buckwheat (POLCO); assay: Test 24 growth chamber, postemergence; type: in vivo, Polygonum convolvulus; settings: 17 DAA
Procedure: as §3

[17] = test system: common lambsquarters (CHEAL); assay: Test 24 growth chamber, postemergence; type: in vivo, Chenopodium album; settings: 17 DAA
Procedure: as §3

[18] = test system: Russian thistle (SASKR); assay: Test 24 growth chamber, postemergence; type: in vivo, Salsola kali; settings: 17 DAA
Procedure: as §3

[19] = test system: redroot pigweed (AMARE); assay: Test 24 growth chamber, postemergence; type: in vivo, Amaranthus retroflexus; settings: 17 DAA
Procedure: as §3

[20] = Diflufenzopyr 30 g a.i./ha, 14 DAA
[21] = Diflufenzopyr 30 g a.i./ha, 28 DAA
[22] = Diflufenzopyr 30 g a.i./ha, 56 DAA
[23] = Diflufenzopyr 45 g a.i./ha, 14 DAA
[24] = Diflufenzopyr 45 g a.i./ha, 28 DAA
[25] = Diflufenzopyr 45 g a.i./ha, 56 DAA
[26] = Nicosulfuron 15 g a.i./ha, 14 DAA
[27] = Nicosulfuron 15 g a.i./ha, 28 DAA
[28] = Nicosulfuron 15 g a.i./ha, 56 DAA

SMILES: C/C(=N\NC(=O)Nc1cc(F)cc(F)c1)c1ncccc1C(=O)O [Diflufenzopyr]
- ZEAMD Obs (percent of control) [1, 20]: 100%
- ZEAMD Obs (percent of control) [1, 21]: 83%
- ZEAMD Obs (percent of control) [1, 22]: 100%
- ZEAMD Obs (percent of control) [1, 23]: 100%
- ZEAMD Obs (percent of control) [1, 24]: 88%
- ZEAMD Obs (percent of control) [1, 25]: 100%
- AMBTR Obs (percent of control) ([2]; Diflufenzopyr 45 g a.i./ha): 75%
- ABUTH Obs (percent of control) [3, 20]: 28%
- ABUTH Obs (percent of control) [3, 21]: 58%
- ABUTH Obs (percent of control) [3, 22]: 33%
- ABUTH Obs (percent of control) [3, 23]: 15%
- ABUTH Obs (percent of control) [3, 24]: 55%
- ABUTH Obs (percent of control) [3, 25]: 40%
- POLPY Obs (percent of control) ([4]; Diflufenzopyr 30 g a.i./ha): 30%
- POLPY Obs (percent of control) ([4]; Diflufenzopyr 45 g a.i./ha): 35%
- AMBEL Obs (percent of control) [5, 20]: 60%
- AMBEL Obs (percent of control) [5, 21]: 73%
- AMBEL Obs (percent of control) [5, 22]: 83%
- AMBEL Obs (percent of control) [5, 23]: 57%
- AMBEL Obs (percent of control) [5, 24]: 60%
- AMBEL Obs (percent of control) [5, 25]: 75%
- SETFA Obs (percent of control) [6, 20]: 40%
- SETFA Obs (percent of control) [6, 21]: 60%
- SETFA Obs (percent of control) [6, 22]: 68%
- SETFA Obs (percent of control) [6, 23]: 40%
- SETFA Obs (percent of control) [6, 24]: 58%
- SETFA Obs (percent of control) [6, 25]: 60%
- AMARE Obs (percent of control) [7, 20]: 48%
- AMARE Obs (percent of control) [7, 21]: 63%
- AMARE Obs (percent of control) [7, 22]: 30%
- AMARE Obs (percent of control) [7, 23]: 47%
- AMARE Obs (percent of control) [7, 24]: 55%
- AMARE Obs (percent of control) [7, 25]: 55%
- CHEAL Obs (percent of control) [8, 20]: 50%
- CHEAL Obs (percent of control) [8, 21]: 78%
- CHEAL Obs (percent of control) [8, 22]: 10%
- CHEAL Obs (percent of control) [8, 23]: 45%
- CHEAL Obs (percent of control) [8, 24]: 65%
- CHEAL Obs (percent of control) [8, 25]: 0%

SMILES: COc1cc(OC)nc(NC(=O)NS(=O)(=O)c2ncccc2C(=O)N(C)C)n1 [Nicosulfuron]
- ZEAMD Obs (percent of control) [1, 26]: 100%
- ZEAMD Obs (percent of control) [1, 27]: 100%
- ZEAMD Obs (percent of control) [1, 28]: 100%
- AMBTR Obs (percent of control) ([2]; Nicosulfuron 15 g a.i./ha): 100%
- ABUTH Obs (percent of control) [3, 26]: 48%
- ABUTH Obs (percent of control) [3, 27]: 73%
- ABUTH Obs (percent of control) [3, 28]: 100%
- POLPY Obs (percent of control) ([4]; Nicosulfuron 15 g a.i./ha): 28%
- AMBEL Obs (percent of control) [5, 26]: 95%
- AMBEL Obs (percent of control) [5, 27]: 100%
- AMBEL Obs (percent of control) [5, 28]: 100%
- SETFA Obs (percent of control) [6, 26]: 15%
- SETFA Obs (percent of control) [6, 27]: 11%
- SETFA Obs (percent of control) [6, 28]: 7%
- AMARE Obs (percent of control) [7, 26]: 2%
- AMARE Obs (percent of control) [7, 27]: 2%
- AMARE Obs (percent of control) [7, 28]: 33%
- CHEAL Obs (percent of control) [8, 26]: 95%
- CHEAL Obs (percent of control) [8, 27]: 72%
- CHEAL Obs (percent of control) [8, 28]: 53%

SMILES: Nc1c(Cl)c(F)nc(OCC(=O)O)c1Cl [Fluroxypyr]
- SINAR Obs (scale 0 to 100) ([9]; Fluroxypyr 62 g a.i./ha): 75
- SINAR Obs (scale 0 to 100) ([9]; Fluroxypyr 125 g a.i./ha): 75
- KCHSC Obs (scale 0 to 100) ([10]; Fluroxypyr 62 g a.i./ha): 68
- KCHSC Obs (scale 0 to 100) ([10]; Fluroxypyr 125 g a.i./ha): 73
- GALAP Obs (scale 0 to 100) ([11]; Fluroxypyr 62 g a.i./ha): 80
- GALAP Obs (scale 0 to 100) ([11]; Fluroxypyr 125 g a.i./ha): 85
- VIOAR Obs (scale 0 to 100) ([12]; Fluroxypyr 62 g a.i./ha): 73
- VIOAR Obs (scale 0 to 100) ([12]; Fluroxypyr 125 g a.i./ha): 82
- MATCH Obs (scale 0 to 100) ([13]; Fluroxypyr 62 g a.i./ha): 60
- MATCH Obs (scale 0 to 100) ([13]; Fluroxypyr 125 g a.i./ha): 65
- STEME Obs (scale 0 to 100) ([14]; Fluroxypyr 62 g a.i./ha): 75
- STEME Obs (scale 0 to 100) ([14]; Fluroxypyr 125 g a.i./ha): 83
- PAPRH Obs (scale 0 to 100) ([15]; Fluroxypyr 62 g a.i./ha): 65
- PAPRH Obs (scale 0 to 100) ([15]; Fluroxypyr 125 g a.i./ha): 73
- POLCO Obs (scale 0 to 100) ([16]; Fluroxypyr 62 g a.i./ha): 68
- POLCO Obs (scale 0 to 100) ([16]; Fluroxypyr 125 g a.i./ha): 75
- CHEAL Obs (scale 0 to 100) ([17]; Fluroxypyr 62 g a.i./ha): 47
- CHEAL Obs (scale 0 to 100) ([17]; Fluroxypyr 125 g a.i./ha): 58
- SASKR Obs (scale 0 to 100) ([18]; Fluroxypyr 62 g a.i./ha): 75
- SASKR Obs (scale 0 to 100) ([18]; Fluroxypyr 125 g a.i./ha): 75
- AMARE Obs (scale 0 to 100) ([19]; Fluroxypyr 62 g a.i./ha): 67
- AMARE Obs (scale 0 to 100) ([19]; Fluroxypyr 125 g a.i./ha): 77

From patent US20100285959A1, “HERBICIDAL MIXTURES” (priority 2006, published 2010)
